A value given as a limit tells only on which side of the number the result lay.

Data set [1] addresses Hepatocyte growth factor receptor (Homo sapiens, UniProt P08581). Description: Inhibition of purified recombinant MET kinase domain (unknown origin) using biotin as substrate preincubated for 5 mins followed by substrate addition and measured after 30 to 60 mins in presence of ATP by HTRF assay. (TR-FRET usually uses a lanthanide donor and a delayed reading to cut background.)

The target of data set [2] is Vascular endothelial growth factor receptor 2 (Homo sapiens, UniProt P35968). The data set can be described thus: Inhibition of purified recombinant VEGFR2 kinase domain (unknown origin) using biotin as substrate preincubated for 5 mins followed by substrate addition and measured after 30 to 60 mins in presence of ATP by HTRF assay.
The target of data set [3] is Tyrosine-protein kinase receptor UFO (Homo sapiens, UniProt P30530). The data set can be described thus: Inhibition of recombinant […] human N-terminal GST-tagged AXL (473 to end residues) expressed in baculovirus infected Sf21 insect cells using biotin as substrate preincubated for 5 mins followed by substrate addition and measured after 30 to 60 mins in presence of ATP by HTRF assay.

For data set [4], the target named is BDNF/NT-3 growth factors receptor (Homo sapiens, UniProt Q16620). Description: Inhibition of recombinant human His-tagged TRKB catalytic domain (526 to 838 residues) expressed in baculovirus expression system using biotin as substrate preincubated for 5 mins followed by substrate addition and measured after 30 to 60 mins in presence of ATP by HTRF assay.
Data set [5] in a line: Cmax in Sprague-Dawley rat at 5.0 mg/kg, ig measured for 15 min to 72 hrs by LC-MS/MS analysis. More on the design: dose 5 mg/kg, route intragastric. It counts as ADME, organism-based. The settings on record: in vivo, po.
A short description of data set [6]: AUC (0 to infinity) in Sprague-Dawley rat at 1.0 mg/kg, iv measured for 5 min to 72 hrs by LC-MS/MS analysis. More on the design: dose 1 mg/kg, time infinity, route intravenous. It counts as ADME, organism-based. The settings on record: in vivo.
Data set [7] can be described thus: Volume of distribution in Sprague-Dawley rat at 1.0 mg/kg, iv measured for 5 min to 72 hrs by LC-MS/MS analysis. It counts as ADME, organism-based. The settings on record: in vivo.
Data set [8] concerns the target Tyrosine-protein kinase receptor UFO (Homo sapiens) (UniProt P30530). The data set can be described thus: Inhibition of recombinant […] human N-terminal GST-tagged AXL (473 to end residues) expressed in baculovirus infected Sf21 insect cells at 1 uM using biotin as substrate preincubated for 5 mins followed by substrate addition and measured after 30 to 60 mins in presence of ATP by HTRF assay relative to control.

Data set [9] deals with Tyrosine-protein kinase Fgr (Homo sapiens) (UniProt P09769). The data set can be described thus: Inhibition of recombinant full length human His-tagged FGR expressed in baculovirus expression system at 1 uM using biotin as substrate preincubated for 5 mins followed by substrate addition and measured after 30 to 60 mins in presence of ATP by HTRF assay relative to control.

Data set [10] deals with Tyrosine-protein kinase Mer (Homo sapiens) (UniProt Q12866). Description: Inhibition of recombinant human GST-tagged cMER (578 to 872 residues) expressed in baculovirus infected Sf21 insect cells at 1 uM using biotin as substrate preincubated for 5 mins followed by substrate addition and measured after 30 to 60 mins in presence of ATP by HTRF assay relative to control.
The target of data set [11] is High affinity nerve growth factor receptor (Homo sapiens, UniProt P04629). Description: Inhibition of recombinant human His-tagged TRKA catalytic domain (441 to 796 residues) expressed in baculovirus expression system at 1 uM using biotin as substrate preincubated for 5 mins followed by substrate addition and measured after 30 to 60 mins in presence of ATP by HTRF assay relative to control.

Data set [12] addresses Aurora kinase B (Homo sapiens) (UniProt Q96GD4). The data set can be described thus: Inhibition of recombinant full length human His-tagged Aurora B expressed in baculovirus expression system at 1 uM using biotin as substrate preincubated for 5 mins followed by substrate addition and measured after 30 to 60 mins in presence of ATP by HTRF assay relative to control.
The target of data set [13] is Tyrosine-protein kinase BTK (Homo sapiens) (UniProt Q06187). The data set can be described thus: Inhibition of recombinant full length human His-tagged BTK expressed in baculovirus expression system at 1 uM using biotin as substrate preincubated for 5 mins followed by substrate addition and measured after 30 to 60 mins in presence of ATP by HTRF assay relative to control.

Data set [14] addresses Cyclin-dependent kinase 5/CDK5 activator 1 (Homo sapiens) (UniProt Q00535+Q15078). Description: Inhibition of recombinant full length human GST/His-tagged CDK5/p25 expressed in baculovirus expression system at 1 uM using biotin as substrate preincubated for 5 mins followed by substrate addition and measured after 30 to 60 mins in presence of ATP by HTRF assay relative to control.

The target of data set [15] is Glycogen synthase kinase-3 beta (Homo sapiens) (UniProt P49841). The data set can be described thus: Inhibition of GSK3beta (unknown origin) at 1 uM using biotin as substrate preincubated for 5 mins followed by substrate addition and measured after 30 to 60 mins in presence of ATP by HTRF assay relative to control.
Data set [16] has as its target Tyrosine-protein kinase JAK3 (Homo sapiens) (UniProt P52333). The data set can be described thus: Inhibition of recombinant full length human GST-tagged JAK3 expressed in baculovirus expression system at 1 uM using biotin as substrate preincubated for 5 mins followed by substrate addition and measured after 30 to 60 mins in presence of ATP by HTRF assay relative to control.

The target in data set [17] is Tyrosine-protein kinase Lyn (Homo sapiens) (UniProt P07948). The data set can be described thus: Inhibition of recombinant full length human GST-tagged LYN B expressed in baculovirus expression system at 1 uM using biotin as substrate preincubated for 5 mins followed by substrate addition and measured after 30 to 60 mins in presence of ATP by HTRF assay relative to control.

The target in data set [18] is Mitogen-activated protein kinase 14 (Homo sapiens) (UniProt Q16539). Description: Inhibition of recombinant full length human GST-tagged MAPK14 expressed in Escherichia coli at 1 uM using biotin as substrate preincubated for 5 mins followed by substrate addition and measured after 30 to 60 mins in presence of ATP by HTRF assay relative to control.
Data set [19] concerns the target Serine/threonine-protein kinase PLK1 (Homo sapiens) (UniProt P53350). The data set can be described thus: Inhibition of recombinant full length human His-tagged PLK1 expressed in baculovirus expression system at 1 uM using biotin as substrate preincubated for 5 mins followed by substrate addition and measured after 30 to 60 mins in presence of ATP by HTRF assay relative to control.

The target in data set [20] is Ribosomal protein S6 kinase alpha-5 (Homo sapiens) (UniProt O75582). The data set can be described thus: Inhibition of recombinant full length human GST-tagged RPS6KA5 expressed in baculovirus expression system at 1 uM using biotin as substrate preincubated for 5 mins followed by substrate addition and measured after 30 to 60 mins in presence of ATP by HTRF assay relative to control.

In data set [21] the target is Serine/threonine-protein kinase TBK1 (Homo sapiens) (UniProt Q9UHD2). The data set can be described thus: Inhibition of recombinant full length human GST-tagged TBK1 expressed in insect cells at 1 uM using biotin as substrate preincubated for 5 mins followed by substrate addition and measured after 30 to 60 mins in presence of ATP by HTRF assay relative to control.

The target of data set [22] is Mitogen-activated protein kinase kinase kinase 20 (Homo sapiens) (UniProt Q9NYL2). Description: Inhibition of recombinant full length human GST-tagged ZAK expressed in baculovirus expression system at 1 uM using biotin as substrate preincubated for 5 mins followed by substrate addition and measured after 30 to 60 mins in presence of ATP by HTRF assay relative to control.
Mitogen-activated protein kinase kinase kinase 20 (Homo sapiens), sequence (Q9NYL2 2-800 limits assumed): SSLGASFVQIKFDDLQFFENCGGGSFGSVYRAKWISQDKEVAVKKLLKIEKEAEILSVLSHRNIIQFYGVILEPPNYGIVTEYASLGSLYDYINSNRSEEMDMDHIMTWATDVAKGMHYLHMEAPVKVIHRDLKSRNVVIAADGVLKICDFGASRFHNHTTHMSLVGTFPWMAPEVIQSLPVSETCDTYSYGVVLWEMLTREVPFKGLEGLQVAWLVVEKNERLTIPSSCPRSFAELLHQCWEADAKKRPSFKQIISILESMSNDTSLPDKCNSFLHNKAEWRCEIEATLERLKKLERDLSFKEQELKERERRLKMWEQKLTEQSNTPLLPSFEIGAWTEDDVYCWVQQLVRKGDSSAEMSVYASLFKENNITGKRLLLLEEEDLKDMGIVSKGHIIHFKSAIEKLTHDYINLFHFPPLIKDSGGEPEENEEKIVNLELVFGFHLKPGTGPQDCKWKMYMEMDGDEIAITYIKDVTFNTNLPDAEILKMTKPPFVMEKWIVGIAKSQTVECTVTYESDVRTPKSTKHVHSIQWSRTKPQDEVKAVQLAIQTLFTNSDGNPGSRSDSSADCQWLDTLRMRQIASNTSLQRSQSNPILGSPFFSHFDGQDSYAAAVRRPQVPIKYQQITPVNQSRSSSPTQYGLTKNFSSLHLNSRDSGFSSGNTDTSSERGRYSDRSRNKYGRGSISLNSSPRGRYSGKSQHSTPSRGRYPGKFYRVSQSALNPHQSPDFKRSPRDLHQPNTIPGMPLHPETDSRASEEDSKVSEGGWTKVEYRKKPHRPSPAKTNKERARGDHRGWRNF

Serine/threonine-protein kinase PLK1 (Homo sapiens), sequence (P53350 whole entry): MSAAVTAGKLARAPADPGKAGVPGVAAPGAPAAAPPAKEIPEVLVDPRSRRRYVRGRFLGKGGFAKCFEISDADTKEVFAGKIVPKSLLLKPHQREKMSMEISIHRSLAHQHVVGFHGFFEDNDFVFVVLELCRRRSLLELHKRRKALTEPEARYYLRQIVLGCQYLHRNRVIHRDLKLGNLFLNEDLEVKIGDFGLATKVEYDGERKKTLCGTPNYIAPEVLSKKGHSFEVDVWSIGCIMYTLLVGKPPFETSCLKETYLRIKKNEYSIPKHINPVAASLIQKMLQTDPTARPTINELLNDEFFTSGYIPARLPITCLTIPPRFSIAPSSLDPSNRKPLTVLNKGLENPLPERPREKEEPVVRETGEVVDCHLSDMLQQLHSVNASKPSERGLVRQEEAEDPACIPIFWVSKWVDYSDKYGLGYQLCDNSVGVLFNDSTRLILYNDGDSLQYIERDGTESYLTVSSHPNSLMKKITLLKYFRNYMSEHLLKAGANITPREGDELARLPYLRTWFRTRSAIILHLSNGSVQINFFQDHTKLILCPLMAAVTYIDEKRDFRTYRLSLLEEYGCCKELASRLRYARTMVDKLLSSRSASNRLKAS
Tyrosine-protein kinase Fgr (Homo sapiens), sequence (P09769 2-529 limits assumed): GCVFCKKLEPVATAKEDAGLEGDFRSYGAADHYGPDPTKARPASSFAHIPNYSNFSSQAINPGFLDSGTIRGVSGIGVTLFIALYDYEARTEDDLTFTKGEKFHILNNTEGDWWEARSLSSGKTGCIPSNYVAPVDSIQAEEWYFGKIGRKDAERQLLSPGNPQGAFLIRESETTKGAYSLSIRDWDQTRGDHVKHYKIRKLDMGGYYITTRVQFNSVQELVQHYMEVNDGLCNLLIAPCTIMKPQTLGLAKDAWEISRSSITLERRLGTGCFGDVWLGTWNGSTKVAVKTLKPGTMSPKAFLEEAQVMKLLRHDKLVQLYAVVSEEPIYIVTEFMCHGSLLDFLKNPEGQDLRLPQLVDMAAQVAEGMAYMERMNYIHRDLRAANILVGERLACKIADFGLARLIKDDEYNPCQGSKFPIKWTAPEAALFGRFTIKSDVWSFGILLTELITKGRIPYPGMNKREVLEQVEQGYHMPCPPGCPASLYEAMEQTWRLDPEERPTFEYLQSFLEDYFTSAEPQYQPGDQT
Tyrosine-protein kinase Lyn (Homo sapiens), sequence (P07948 2-512 limits assumed): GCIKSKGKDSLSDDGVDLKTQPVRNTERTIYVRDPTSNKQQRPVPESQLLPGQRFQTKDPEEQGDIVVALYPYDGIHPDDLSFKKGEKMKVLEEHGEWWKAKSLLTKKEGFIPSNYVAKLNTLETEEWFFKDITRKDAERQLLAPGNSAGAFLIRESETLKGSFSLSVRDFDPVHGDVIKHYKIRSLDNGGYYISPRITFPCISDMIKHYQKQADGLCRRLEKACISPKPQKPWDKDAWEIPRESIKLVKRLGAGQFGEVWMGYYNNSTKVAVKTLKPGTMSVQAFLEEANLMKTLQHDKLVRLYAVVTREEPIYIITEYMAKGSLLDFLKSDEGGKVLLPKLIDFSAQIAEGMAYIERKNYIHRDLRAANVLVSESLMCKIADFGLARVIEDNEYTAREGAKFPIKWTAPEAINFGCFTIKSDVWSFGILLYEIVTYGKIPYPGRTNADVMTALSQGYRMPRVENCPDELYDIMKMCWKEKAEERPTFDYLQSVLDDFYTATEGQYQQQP
Tyrosine-protein kinase receptor UFO, sequence (P30530 whole entry): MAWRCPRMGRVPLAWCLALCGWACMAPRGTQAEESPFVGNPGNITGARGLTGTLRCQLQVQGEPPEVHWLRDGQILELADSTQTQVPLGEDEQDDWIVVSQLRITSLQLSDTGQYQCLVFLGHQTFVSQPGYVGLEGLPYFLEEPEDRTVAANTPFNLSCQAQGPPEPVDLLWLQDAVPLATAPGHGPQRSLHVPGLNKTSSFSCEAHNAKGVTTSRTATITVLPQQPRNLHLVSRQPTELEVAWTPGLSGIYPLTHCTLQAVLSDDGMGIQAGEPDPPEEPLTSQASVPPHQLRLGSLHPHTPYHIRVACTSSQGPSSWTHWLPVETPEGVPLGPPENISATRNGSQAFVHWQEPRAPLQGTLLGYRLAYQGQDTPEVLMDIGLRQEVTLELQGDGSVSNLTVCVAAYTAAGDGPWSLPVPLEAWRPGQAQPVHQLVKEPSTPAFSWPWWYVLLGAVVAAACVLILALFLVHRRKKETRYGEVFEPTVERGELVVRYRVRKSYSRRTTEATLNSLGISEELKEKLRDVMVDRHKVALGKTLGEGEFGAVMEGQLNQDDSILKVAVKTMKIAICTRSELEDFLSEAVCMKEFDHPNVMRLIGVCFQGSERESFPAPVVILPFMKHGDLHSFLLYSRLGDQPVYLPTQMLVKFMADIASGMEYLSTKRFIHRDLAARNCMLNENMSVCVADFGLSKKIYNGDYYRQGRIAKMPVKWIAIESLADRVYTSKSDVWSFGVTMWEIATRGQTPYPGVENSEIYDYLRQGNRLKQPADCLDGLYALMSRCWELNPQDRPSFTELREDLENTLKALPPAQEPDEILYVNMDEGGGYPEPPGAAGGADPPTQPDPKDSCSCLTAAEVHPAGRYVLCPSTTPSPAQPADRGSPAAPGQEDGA
Tyrosine-protein kinase receptor UFO (Homo sapiens), sequence (P30530 whole entry): as above
Ribosomal protein S6 kinase alpha-5 (Homo sapiens), sequence (O75582 whole entry, looked up): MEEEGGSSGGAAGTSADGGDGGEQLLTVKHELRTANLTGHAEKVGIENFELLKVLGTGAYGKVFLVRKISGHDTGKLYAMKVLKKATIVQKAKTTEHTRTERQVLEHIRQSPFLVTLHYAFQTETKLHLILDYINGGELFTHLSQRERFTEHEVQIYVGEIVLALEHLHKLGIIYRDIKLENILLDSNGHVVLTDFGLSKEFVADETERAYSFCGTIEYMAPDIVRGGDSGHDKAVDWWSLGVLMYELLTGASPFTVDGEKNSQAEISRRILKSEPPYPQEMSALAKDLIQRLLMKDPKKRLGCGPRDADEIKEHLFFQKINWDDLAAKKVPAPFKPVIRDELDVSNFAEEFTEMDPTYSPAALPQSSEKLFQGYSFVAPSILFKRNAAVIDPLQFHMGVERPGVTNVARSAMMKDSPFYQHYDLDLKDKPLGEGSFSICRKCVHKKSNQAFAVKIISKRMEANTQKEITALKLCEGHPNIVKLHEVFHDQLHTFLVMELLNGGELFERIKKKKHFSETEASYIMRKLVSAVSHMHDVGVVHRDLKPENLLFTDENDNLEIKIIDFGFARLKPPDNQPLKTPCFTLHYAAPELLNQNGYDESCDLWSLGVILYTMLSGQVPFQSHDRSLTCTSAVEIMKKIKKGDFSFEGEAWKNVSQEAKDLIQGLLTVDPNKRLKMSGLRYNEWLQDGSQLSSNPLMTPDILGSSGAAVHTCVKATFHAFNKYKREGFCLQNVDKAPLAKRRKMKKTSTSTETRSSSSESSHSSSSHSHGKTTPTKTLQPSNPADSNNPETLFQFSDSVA
Serine/threonine-protein kinase TBK1 (Homo sapiens), sequence (Q9UHD2 whole entry): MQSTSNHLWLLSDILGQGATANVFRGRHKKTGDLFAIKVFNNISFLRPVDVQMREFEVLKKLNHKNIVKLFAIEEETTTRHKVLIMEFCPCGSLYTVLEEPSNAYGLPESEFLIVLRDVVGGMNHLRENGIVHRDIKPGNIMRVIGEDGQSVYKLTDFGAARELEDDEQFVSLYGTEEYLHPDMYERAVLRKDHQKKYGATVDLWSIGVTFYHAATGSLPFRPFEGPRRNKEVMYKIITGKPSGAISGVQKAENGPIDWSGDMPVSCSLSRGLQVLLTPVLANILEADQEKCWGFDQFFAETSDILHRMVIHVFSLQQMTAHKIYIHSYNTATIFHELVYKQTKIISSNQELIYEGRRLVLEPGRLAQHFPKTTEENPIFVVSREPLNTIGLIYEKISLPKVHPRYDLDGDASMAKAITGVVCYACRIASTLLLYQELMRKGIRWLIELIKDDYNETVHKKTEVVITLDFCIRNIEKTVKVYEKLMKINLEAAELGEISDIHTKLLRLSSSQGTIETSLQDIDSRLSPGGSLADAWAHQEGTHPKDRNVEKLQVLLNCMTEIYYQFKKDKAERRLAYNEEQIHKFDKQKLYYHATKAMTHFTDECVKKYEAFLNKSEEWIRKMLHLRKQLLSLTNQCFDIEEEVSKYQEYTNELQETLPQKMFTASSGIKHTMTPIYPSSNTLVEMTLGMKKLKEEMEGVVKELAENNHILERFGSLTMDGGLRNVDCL

For the molecule `Cn1cc(-c2ccc(F)cc2)c(=O)c2c(Nc3ccc(Oc4ccnc(NC(=O)C5CC5)c4)c(F)c3)nccc21`, the half-maximal inhibitory concentration (IC50) (as a rule, the concentration needed to halve the response being measured) in [1] came out at 0.0071 µM; in [2], 22.9 µM; in data set [3], 0.0082 µM; in [4], 0.0588 µM. The maximum concentration (Cmax) (in general, the peak of the concentration-time curve) in data set [5] is 7800 ng/mL. In addition, the AUC(0-inf) (as a rule, total exposure, with the tail of the curve extrapolated) in data set [6] worked out at 80600 ng·h/mL. Moreover, in data set [7], the distribution volume (Vd) (commonly a proportionality between amount in the body and measured concentration, not a real space) worked out at 0.4 L/kg. The inhibition (as a rule, how much of the control response was suppressed) is over 80% in [8]; over 80% in [9]; over 80% in data set [10]; over 80% in [11]; under 50% in [12]; under 50% in data set [13]. The inhibition in data set [14], in [15], in [16], in [17], in data set [18] and in data set [19] was under 50% in each case. In addition, the inhibition in data set [20], in data set [21] and in [22] was under 50% each time.

These data come from ChEMBL document CHEMBL4373740, “Synthesis and biological evaluation of new MET inhibitors with 1,6-naphthyridinone scaffold” (Eur J Med Chem, 2020).
